Source: ChEMBL document CHEMBL3044649, “Zn(OTf)2-catalyzed three component, one-pot cyclocondensation reaction of some new octahydroquinazolinone derivatives and access their bio-potential” (2012)
Converted amounts (≈) assume the structure as drawn.

What was measured:
Assay type in all cases: functional
Aspergillus fumigatus = assay: Antimicrobial activity against Aspergillus fumigatus MTCC 3008 after 24 to 48 hr by broth microdilution method
Salmonella typhi = assay: Antimicrobial activity against Salmonella enterica subsp. enterica serovar Typhi MTCC 98 after 24 to 48 hr by broth microdilution method
Vibrio cholerae = assay: Antimicrobial activity against Vibrio cholerae MTCC 3906 after 24 to 48 hr by broth microdilution method
Streptococcus pneumoniae = assay: Antimicrobial activity against Streptococcus pneumoniae MTCC 1936 after 24 to 48 hr by broth microdilution method
Escherichia coli = assay: Antimicrobial activity against Escherichia coli MTCC 443 after 24 to 48 hr by broth microdilution method
Candida albicans = assay: Antimicrobial activity against Candida albicans MTCC 227 after 24 to 48 hr by broth microdilution method
Clostridium tetani = assay: Antimicrobial activity against Clostridium tetani MTCC 449 after 24 to 48 hr by broth microdilution method
Bacillus subtilis = assay: Antimicrobial activity against Bacillus subtilis MTCC 441 after 24 to 48 hr by broth microdilution method

Compound	MIC (Aspergillus fumigatus)	MIC (Salmonella typhi)	MIC (Vibrio cholerae)	MIC (Streptococcus pneumoniae)	MIC (Escherichia coli)	MIC (Candida albicans)	MIC (Clostridium tetani)	MIC (Bacillus subtilis)
O=C1CCCC2=C1C(c1cc3ccccc3[nH]c1=S)NC(=S)N2 (stereo not given)	> 1000 µg/mL	200 µg/mL (≈ 586 µM)	250 µg/mL (≈ 732 µM)	500 µg/mL (≈ 1460 µM)	250 µg/mL (≈ 732 µM)	250 µg/mL (≈ 732 µM)	250 µg/mL (≈ 732 µM)	250 µg/mL (≈ 732 µM)
Cc1ccc2[nH]c(=O)c(C3NC(=O)NC4=C3C(=O)CCC4)cc2c1 (stereo not given)	1000 µg/mL (≈ 3090 µM)	500 µg/mL (≈ 1550 µM)	200 µg/mL (≈ 619 µM)	100 µg/mL (≈ 309 µM)	500 µg/mL (≈ 1550 µM)	1000 µg/mL (≈ 3090 µM)	200 µg/mL (≈ 619 µM)	500 µg/mL (≈ 1550 µM)
O=C1CCCC2=C1C(c1cc3cc(Cl)ccc3[nH]c1=O)NC(=S)N2 (stereo not given)	1000 µg/mL (≈ 2780 µM)	200 µg/mL (≈ 556 µM)	250 µg/mL (≈ 695 µM)	250 µg/mL (≈ 695 µM)	100 µg/mL (≈ 278 µM)	500 µg/mL (≈ 1390 µM)	250 µg/mL (≈ 695 µM)	250 µg/mL (≈ 695 µM)
CCn1cc(C(=O)O)c(=O)c2cc(F)c(N3CCNCC3)cc21 [NORFLOXACIN]	–	10 µg/mL (≈ 31.3 µM)	10 µg/mL (≈ 31.3 µM)	10 µg/mL (≈ 31.3 µM)	10 µg/mL (≈ 31.3 µM)	–	50 µg/mL (≈ 157 µM)	100 µg/mL (≈ 313 µM)
CC1(C)CC(=O)C2=C(C1)NC(=S)NC2c1cc2ccccc2[nH]c1=O (stereo not given)	500 µg/mL (≈ 1410 µM)	150 µg/mL (≈ 424 µM)	500 µg/mL (≈ 1410 µM)	500 µg/mL (≈ 1410 µM)	125 µg/mL (≈ 354 µM)	500 µg/mL (≈ 1410 µM)	500 µg/mL (≈ 1410 µM)	500 µg/mL (≈ 1410 µM)
Cc1ccc2[nH]c(=O)c(C3NC(=S)N(c4ccccc4)C4=C3C(=O)CCC4)cc2c1 (stereo not given)	500 µg/mL (≈ 1200 µM)	250 µg/mL (≈ 602 µM)	500 µg/mL (≈ 1200 µM)	500 µg/mL (≈ 1200 µM)	500 µg/mL (≈ 1200 µM)	1000 µg/mL (≈ 2410 µM)	250 µg/mL (≈ 602 µM)	500 µg/mL (≈ 1200 µM)
CC1(C)S[C@@H]2[C@H](NC(=O)[C@H](N)c3ccccc3)C(=O)N2[C@H]1C(=O)O [AMPICILLIN]	–	100 µg/mL (≈ 286 µM)	100 µg/mL (≈ 286 µM)	100 µg/mL (≈ 286 µM)	100 µg/mL (≈ 286 µM)	–	250 µg/mL (≈ 715 µM)	250 µg/mL (≈ 715 µM)
GENTAMICIN	–	5 µg/mL	5 µg/mL	0.5 µg/mL	0.05 µg/mL	–	5 µg/mL	1 µg/mL
CC1(C)CC(=O)C2=C(C1)NC(=O)NC2c1cc2ccccc2[nH]c1=O (stereo not given)	500 µg/mL (≈ 1480 µM)	250 µg/mL (≈ 741 µM)	250 µg/mL (≈ 741 µM)	250 µg/mL (≈ 741 µM)	100 µg/mL (≈ 296 µM)	500 µg/mL (≈ 1480 µM)	200 µg/mL (≈ 593 µM)	500 µg/mL (≈ 1480 µM)
Cc1ccc2[nH]c(=O)c(C3NC(=S)NC4=C3C(=O)CCC4)cc2c1 (stereo not given)	500 µg/mL (≈ 1470 µM)	500 µg/mL (≈ 1470 µM)	500 µg/mL (≈ 1470 µM)	500 µg/mL (≈ 1470 µM)	500 µg/mL (≈ 1470 µM)	200 µg/mL (≈ 589 µM)	500 µg/mL (≈ 1470 µM)	500 µg/mL (≈ 1470 µM)
CC1(C)CC(=O)C2=C(C1)NC(=O)NC2c1cc2ccccc2[nH]c1=S (stereo not given)	100 µg/mL (≈ 283 µM)	500 µg/mL (≈ 1410 µM)	200 µg/mL (≈ 566 µM)	250 µg/mL (≈ 707 µM)	500 µg/mL (≈ 1410 µM)	100 µg/mL (≈ 283 µM)	500 µg/mL (≈ 1410 µM)	500 µg/mL (≈ 1410 µM)
COc1ccc2[nH]c(=O)c(C3NC(=S)NC4=C3C(=O)CCC4)cc2c1 (stereo not given)	> 1000 µg/mL	125 µg/mL (≈ 352 µM)	200 µg/mL (≈ 563 µM)	200 µg/mL (≈ 563 µM)	50 µg/mL (≈ 141 µM)	500 µg/mL (≈ 1410 µM)	200 µg/mL (≈ 563 µM)	200 µg/mL (≈ 563 µM)
O=C(N[C@H](CO)[C@H](O)c1ccc([N+](=O)[O-])cc1)C(Cl)Cl [CHLORAMPHENICOL]	–	50 µg/mL (≈ 155 µM)	50 µg/mL (≈ 155 µM)	50 µg/mL (≈ 155 µM)	50 µg/mL (≈ 155 µM)	–	50 µg/mL (≈ 155 µM)	50 µg/mL (≈ 155 µM)
COc1ccc2[nH]c(=O)c(C3NC(=O)NC4=C3C(=O)CC(C)(C)C4)cc2c1 (stereo not given)	1000 µg/mL (≈ 2720 µM)	150 µg/mL (≈ 408 µM)	50 µg/mL (≈ 136 µM)	250 µg/mL (≈ 680 µM)	100 µg/mL (≈ 272 µM)	500 µg/mL (≈ 1360 µM)	100 µg/mL (≈ 272 µM)	250 µg/mL (≈ 680 µM)
O=C(O)c1cn(C2CC2)c2cc(N3CCNCC3)c(F)cc2c1=O [CIPROFLOXACIN]	–	25 µg/mL (≈ 75.4 µM)	25 µg/mL (≈ 75.4 µM)	50 µg/mL (≈ 151 µM)	25 µg/mL (≈ 75.4 µM)	–	–	–
COC1=CC(=O)C[C@@H](C)[C@]12Oc1c(Cl)c(OC)cc(OC)c1C2=O [GRISEOFULVIN]	100 µg/mL (≈ 283 µM)	–	–	–	–	500 µg/mL (≈ 1420 µM)	–	–
CC1(C)CC(=O)C2=C(C1)NC(=S)NC2c1cc2ccccc2[nH]c1=S (stereo not given)	500 µg/mL (≈ 1350 µM)	100 µg/mL (≈ 271 µM)	250 µg/mL (≈ 677 µM)	500 µg/mL (≈ 1350 µM)	100 µg/mL (≈ 271 µM)	250 µg/mL (≈ 677 µM)	200 µg/mL (≈ 541 µM)	250 µg/mL (≈ 677 µM)
COc1ccc2[nH]c(=O)c(C3NC(=O)NC4=C3C(=O)CCC4)cc2c1 (stereo not given)	1000 µg/mL (≈ 2950 µM)	250 µg/mL (≈ 737 µM)	500 µg/mL (≈ 1470 µM)	250 µg/mL (≈ 737 µM)	100 µg/mL (≈ 295 µM)	500 µg/mL (≈ 1470 µM)	500 µg/mL (≈ 1470 µM)	250 µg/mL (≈ 737 µM)
Cc1ccc2[nH]c(=O)c(C3NC(=S)N(c4ccccc4)C4=C3C(=O)CC(C)(C)C4)cc2c1 (stereo not given)	500 µg/mL (≈ 1130 µM)	500 µg/mL (≈ 1130 µM)	250 µg/mL (≈ 564 µM)	1000 µg/mL (≈ 2250 µM)	1000 µg/mL (≈ 2250 µM)	1000 µg/mL (≈ 2250 µM)	250 µg/mL (≈ 564 µM)	250 µg/mL (≈ 564 µM)
CC1(C)CC(=O)C2=C(C1)NC(=O)NC2c1cc2cc(Cl)ccc2[nH]c1=O (stereo not given)	> 1000 µg/mL	200 µg/mL (≈ 538 µM)	500 µg/mL (≈ 1340 µM)	500 µg/mL (≈ 1340 µM)	100 µg/mL (≈ 269 µM)	500 µg/mL (≈ 1340 µM)	100 µg/mL (≈ 269 µM)	200 µg/mL (≈ 538 µM)
COc1ccc2[nH]c(=O)c(C3NC(=S)NC4=C3C(=O)CC(C)(C)C4)cc2c1 (stereo not given)	> 1000 µg/mL	250 µg/mL (≈ 652 µM)	200 µg/mL (≈ 522 µM)	200 µg/mL (≈ 522 µM)	500 µg/mL (≈ 1300 µM)	500 µg/mL (≈ 1300 µM)	200 µg/mL (≈ 522 µM)	200 µg/mL (≈ 522 µM)
O=C1NC2=C(C(=O)CCC2)C(c2cc3ccccc3[nH]c2=S)N1 (stereo not given)	500 µg/mL (≈ 1540 µM)	200 µg/mL (≈ 615 µM)	500 µg/mL (≈ 1540 µM)	500 µg/mL (≈ 1540 µM)	500 µg/mL (≈ 1540 µM)	1000 µg/mL (≈ 3070 µM)	500 µg/mL (≈ 1540 µM)	500 µg/mL (≈ 1540 µM)
Cc1ccc2[nH]c(=O)c(C3NC(=O)NC4=C3C(=O)CC(C)(C)C4)cc2c1 (stereo not given)	1000 µg/mL (≈ 2850 µM)	250 µg/mL (≈ 711 µM)	1000 µg/mL (≈ 2850 µM)	100 µg/mL (≈ 285 µM)	100 µg/mL (≈ 285 µM)	500 µg/mL (≈ 1420 µM)	100 µg/mL (≈ 285 µM)	100 µg/mL (≈ 285 µM)
O=C1CCCC2=C1C(c1cc3ccccc3[nH]c1=O)NC(=S)N2c1ccccc1 (stereo not given)	250 µg/mL (≈ 623 µM)	100 µg/mL (≈ 249 µM)	200 µg/mL (≈ 498 µM)	150 µg/mL (≈ 374 µM)	150 µg/mL (≈ 374 µM)	500 µg/mL (≈ 1250 µM)	100 µg/mL (≈ 249 µM)	250 µg/mL (≈ 623 µM)
NYSTATIN	100 µg/mL	–	–	–	–	100 µg/mL	–	–
CC1(C)CC(=O)C2=C(C1)N(c1ccccc1)C(=S)NC2c1cc2ccccc2[nH]c1=O (stereo not given)	1000 µg/mL (≈ 2330 µM)	200 µg/mL (≈ 466 µM)	500 µg/mL (≈ 1160 µM)	500 µg/mL (≈ 1160 µM)	250 µg/mL (≈ 582 µM)	250 µg/mL (≈ 582 µM)	250 µg/mL (≈ 582 µM)	500 µg/mL (≈ 1160 µM)
O=C1NC2=C(C(=O)CCC2)C(c2cc3cc(Cl)ccc3[nH]c2=O)N1 (stereo not given)	1000 µg/mL (≈ 2910 µM)	250 µg/mL (≈ 727 µM)	100 µg/mL (≈ 291 µM)	500 µg/mL (≈ 1450 µM)	200 µg/mL (≈ 582 µM)	1000 µg/mL (≈ 2910 µM)	500 µg/mL (≈ 1450 µM)	250 µg/mL (≈ 727 µM)
O=C1CCCC2=C1C(c1cc3ccccc3[nH]c1=O)NC(=S)N2 (stereo not given)	200 µg/mL (≈ 615 µM)	500 µg/mL (≈ 1540 µM)	500 µg/mL (≈ 1540 µM)	200 µg/mL (≈ 615 µM)	100 µg/mL (≈ 307 µM)	100 µg/mL (≈ 307 µM)	200 µg/mL (≈ 615 µM)	200 µg/mL (≈ 615 µM)
